Patent publication US9187472B2 (AbbVie Inc., priority 2012, dated 2015)

tested on: PC3 cells; assay: NAMPT Cell Proliferation Assay; assay type: cell-based; conditions: 5 days incubation, cell viability by Cell Titer Glo
In short: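 Cell Titer Glo viability after 5-day exposure (37° C, 5% CO2); PC3, 500 cells/well, RPMI + 10% heat-inactivated FBS, overnight attachment before dosing. Dose range 10 μM to 1×10^−5 μM, 10-fold steps. IC50 = sigmoidal fit of % inhibition.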

Work on `O=C(NCc1ccn2ccnc2c1)c1ccc(C2CCN(C(=O)/C=C/c3ccccn3)CC2)cc1` [Example 991, -(imidazo[1,2-a]pyridin-7-ylmethyl)-4-{1-[(2E)-3-(pyridin-2-yl)prop-2-enoyl]piperidin-4-yl}benzamide] yielded an IC50 of 66.9 nM.

same assay, conditions: Homo sapiens, PC-3, 120 h, 5 days incubation, cell viability by Cell Titer Glo

Going from `O=C(NCc1ccn2ccnc2c1)c1ccc(C2CCN(C(=O)c3cnc4c(c3)CCCC4)CC2)cc1` [Example 986, N-(imidazo[1,2-a]pyridin-7-ylmethyl)-4-[1-(5,6,7,8-tetrahydroquinolin-3-ylcarbonyl)piperidin-4-yl]benzamide] to `O=C(NCc1ccn2ccnc2c1)c1ccc(C2CCN(C(=O)c3cnc4c(c3)CCCO4)CC2)cc1` [Example 987, 4-[1-(3,4-dihydro-2H-pyrano[2,3-b]pyridin-6-ylcarbonyl)piperidin-4-yl]-N-(imidazo[1,2-a]pyridin-7-ylmethyl)benzamide], the IC50 rises from 21.4 nM to 543 nM (25-fold). The first is the more potent here.

Compared with `O=C(NCc1ccn2ccnc2c1)c1ccc(C2CCN(C(=O)c3ccc4ccncc4c3)CC2)cc1` [Example 988, N-(imidazo[1,2-a]pyridin-7-ylmethyl)-4-[1-(isoquinolin-7-ylcarbonyl)piperidin-4-yl]benzamide], `O=C(NCc1ccn2ccnc2c1)c1ccc(C2CCN(C(=O)c3cccc4ccncc34)CC2)cc1` [Example 997, N-(imidazo[1,2-a]pyridin-7-ylmethyl)-4-[1-(isoquinolin-8-ylcarbonyl)piperidin-4-yl]benzamide] is 3.1-fold lower in IC50: 60.1 nM for the first, 19.4 nM for the second.

Compared with `O=C(NCc1ccn2ccnc2c1)c1ccc(C2CCN(C(=O)c3cnc4ccccc4n3)CC2)cc1` [Example 989, N-(imidazo[1,2-a]pyridin-7-ylmethyl)-4-[1-(quinoxalin-2-ylcarbonyl)piperidin-4-yl]benzamide], `Cc1cccn2cc(C(=O)N3CCC(c4ccc(C(=O)NCc5ccn6ccnc6c5)cc4)CC3)nc12` [Example 992, N-(imidazo[1,2-a]pyridin-7-ylmethyl)-4-{1-[(8-methylimidazo[1,2-a]pyridin-2-yl)carbonyl]piperidin-4-yl}benzamide] is 8.6-fold higher in IC50: 68.2 nM for the first, 584 nM for the second. The first is the more potent here.

First: COc1ncccc1/C=C/C(=O)N1CCC(c2ccc(C(=O)NCc3ccn4ccnc4c3)cc2)CC1 [Example 990, N-(imidazo[1,2-a]pyridin-7-ylmethyl)-4-{1-[(2E)-3-(2-methoxypyridin-3-yl)prop-2-enoyl]piperidin-4-yl}benzamide]
Second: CCOc1cc(C(=O)N2CCC(c3ccc(C(=O)NCc4ccn5ccnc5c4)cc3)CC2)ccn1 [Example 993, 4-{1-[(2-ethoxypyridin-4-yl)carbonyl]piperidin-4-yl}-N-(imidazo[1,2-a]pyridin-7-ylmethyl)benzamide]
The IC50 of the first is 4.1-fold lower: 17.9 nM for the first, 74 nM for the second. The first is the more potent here.

`Cn1nc(C(=O)N2CCC(c3ccc(C(=O)NCc4ccn5ccnc5c4)cc3)CC2)c2c1CCCC2` [Example 994, N-(imidazo[1,2-a]pyridin-7-ylmethyl)-4-{1-[(1-methyl-4,5,6,7-tetrahydro-1H-indazol-3-yl)carbonyl]piperidin-4-yl}benzamide] and `Cn1c(C(=O)N2CCC(c3ccc(C(=O)NCc4ccn5ccnc5c4)cc3)CC2)cc2occc21` [Example 995, N-(imidazo[1,2-a]pyridin-7-ylmethyl)-4-{1-[(4-methyl-4H-furo[3,2-b]pyrrol-5-yl)carbonyl]piperidin-4-yl}benzamide] are within 1.5-fold of each other in IC50: 12.1 nM for the first, 10.8 nM for the second.

First: N#Cc1cc(F)cc(C(=O)N2CCC(c3ccc(C(=O)NCc4ccn5ccnc5c4)cc3)CC2)c1 [Example 996, 4-[1-(3-cyano-5-fluorobenzoyl)piperidin-4-yl]-N-(imidazo[1,2-a]pyridin-7-ylmethyl)benzamide]
Second: N#Cc1cc(C(=O)N2CCC(c3ccc(C(=O)NCc4ccn5ccnc5c4)cc3)CC2)ccc1F [Example 999, 4-[1-(3-cyano-4-fluorobenzoyl)piperidin-4-yl]-N-(imidazo[1,2-a]pyridin-7-ylmethyl)benzamide]
The IC50 of the first is 11-fold lower: 62 nM for the first, 684 nM for the second. The first is the more potent here.

`N#Cc1ccc(CC(=O)N2CCC(c3ccc(C(=O)NCc4ccn5ccnc5c4)cc3)CC2)cc1` [Example 998, 4-{1-[(4-cyanophenyl)acetyl]piperidin-4-yl}-N-(imidazo[1,2-a]pyridin-7-ylmethyl)benzamide] gave an IC50 of 123 nM.
